According to US20240246941A1, “SUBSTITUTED 4-(3-AMINOPROP-1-YL)AMINOQUINOLINE ANALOGS AS MODULATORS OF MELANOMA-ASSOCIATED ANTIGEN 11 UBIQUITIN LIGASE” (ST. JUDE CHILDREN'S RESEARCH HOSPITAL, INC., priority 2020, published 2024):

Target: MAGE-A11:PCF11 (Homo sapiens (Human), UniProt P43364)
Assay: TR-FRET single point screening at 15 μM
Type: binding
Set-up: unit not given here
How it was run: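 Single-point screen at 15 μM (0.25% DMSO) measuring disruption of GST-MAGEA11 (5 nM) binding to FAM-PCF11_4 peptide (200 nM) detected by Tb-anti-GST (5 nM). Buffer 50 mM Tris pH 7.5, 20 mM MgCl2, 0.1 mg/ml BSA, 1 mM DTT; 90 min at ~25 °C; 520/490 nm ratio converted to % inhibition versus controls.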

[1] = single point TR-FRET screening of quinoline compounds against MAGE-A11:PCF11, 15 μM
[2] = single point TR-FRET screening at 15 μM against MAGE-A11:PCF11

Sequence of MAGE-A11:PCF11 (P43364 218-429): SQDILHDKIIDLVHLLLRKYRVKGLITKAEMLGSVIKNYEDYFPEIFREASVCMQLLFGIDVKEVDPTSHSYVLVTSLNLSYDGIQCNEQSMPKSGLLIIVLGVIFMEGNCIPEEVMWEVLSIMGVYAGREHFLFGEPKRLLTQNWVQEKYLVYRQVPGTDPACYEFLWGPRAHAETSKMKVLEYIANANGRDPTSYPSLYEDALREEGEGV

SMILES | TR-FRET signal [1] | TR-FRET signal [2]
CSC(C)CCNCCCNc1ccnc2cc(C(F)(F)F)ccc12 (stereo not shown) [SJ000361125] | 24.46 | 
Clc1ccc2c(NCCCN(Cc3ccccc3)Cc3ccccc3)ccnc2c1 [SJ000361166] | 14.76 | 
Oc1ccccc1CN(CCCNc1ccnc2cc(Cl)ccc12)Cc1ccccc1 [SJ000361167] | 19.27 | 
FC(F)(F)c1ccccc1CN(CCCNc1ccnc2cc(Cl)ccc12)Cc1ccccc1 [SJ000361168] | 2.509 | 
Cc1cc(C)c(CN(CCCNc2ccnc3cc(Cl)ccc23)Cc2ccccc2)c(C)c1 [SJ000361169] | 31.19 | 
Clc1ccc2c(NCCCN(Cc3ccccc3)Cc3ccoc3)ccnc2c1 [SJ000361170] | 12.84 | 
Clc1ccc2c(NCCCN(Cc3ccccc3)CC3CCCCC3)ccnc2c1 [SJ000361171] | 28.21 | 
CCC(CC)CN(CCCNc1ccnc2cc(Cl)ccc12)Cc1ccccc1 [SJ000361172] | 22.91 | 
CCCCCN(CCCNc1ccnc2cc(Cl)ccc12)Cc1ccccc1 [SJ000361173] | 26.56 | 
Fc1ccc(CN(CCCNc2ccnc3cc(Cl)ccc23)Cc2ccccc2)cc1F [SJ000361174] | 27.55 | 
Fc1ccccc1CN(CCCNc1ccnc2cc(Cl)ccc12)Cc1ccccc1 [SJ000361175] | 0.9627 | 
Fc1cccc(CN(CCCNc2ccnc3cc(Cl)ccc23)Cc2ccccc2)c1 [SJ000361176] | 20.36 | 
O=[N+]([O-])c1ccccc1CN(CCCNc1ccnc2cc(Cl)ccc12)Cc1ccccc1 [SJ000361177] | 16.42 | 
O=[N+]([O-])c1cccc(CN(CCCNc2ccnc3cc(Cl)ccc23)Cc2ccccc2)c1 [SJ000361178] | 17.02 | 
O=[N+]([O-])c1ccc(CN(CCCNc2ccnc3cc(Cl)ccc23)Cc2ccccc2)cc1 [SJ000361179] | 20.2 | 
O=C(O)c1ccccc1CN(CCCNc1ccnc2cc(Cl)ccc12)Cc1ccccc1 [SJ000361180] | 9.598 | 
Clc1ccc2c(NCCCN(Cc3ccccc3)Cc3cccc4ccccc34)ccnc2c1 [SJ000361181] | 26.23 | 
Clc1ccc2c(NCCCN(Cc3ccccc3)Cc3ccc4ccccc4c3)ccnc2c1 [SJ000361182] | 22.05 | 
Cc1cccc(CN(CCCNc2ccnc3cc(Cl)ccc23)Cc2ccccc2)c1 [SJ000361183] | 6.02 | 
Clc1ccc(CN(CCCNc2ccnc3cc(Cl)ccc23)Cc2ccccc2)c(Cl)c1 [SJ000361184] | 25.5 | 
Clc1ccc2c(NCCCN(CCCc3ccccc3)Cc3ccccc3)ccnc2c1 [SJ000361185] | 6.074 | 
CCC(C)CN(CCCNc1ccnc2cc(Cl)ccc12)Cc1ccccc1 (stereo not shown) [SJ000361186] | 29.6 | 
Cc1ccc(C)c(CN(CCCNc2ccnc3cc(Cl)ccc23)Cc2ccccc2)c1 [SJ000361187] | 20.22 | 
COc1cccc(CN(CCCNc2ccnc3cc(Cl)ccc23)Cc2ccccc2)c1 [SJ000361188] | −9.05 | 
CCCCCCN(CCCNc1ccnc2cc(Cl)ccc12)Cc1ccccc1 [SJ000361189] | −40.75 | 
Clc1ccc2c(NCCCCN(Cc3ccccc3)Cc3ccncc3)ccnc2c1 [SJ000361190] |  | −9.945
Cc1ccsc1CN(CCCCNc1ccnc2cc(Cl)ccc12)Cc1ccccc1 [SJ000361191] |  | 23.44

SMILES | TR-FRET signal [1] | TR-FRET signal [2]
FC(F)(F)c1ccccc1CN(CCCCNc1ccnc2cc(Cl)ccc12)Cc1ccccc1 [SJ000361192] |  | 27.82
Cc1cc(C)c(CN(CCCCNc2ccnc3cc(Cl)ccc23)Cc2ccccc2)c(C)c1 [SJ000361193] |  | 26.03
Clc1ccc2c(NCCCCN(Cc3ccccc3)CC3CCCCC3)ccnc2c1 [SJ000361194] |  | 41.93
CCC(CC)CN(CCCCNc1ccnc2cc(Cl)ccc12)Cc1ccccc1 [SJ000361195] |  | 25.54
CCCCCN(CCCCNc1ccnc2cc(Cl)ccc12)Cc1ccccc1 [SJ000361196] |  | 19.1
Fc1ccc(CN(CCCCNc2ccnc3cc(Cl)ccc23)Cc2ccccc2)cc1F [SJ000361197] |  | 26.09
Fc1ccccc1CN(CCCCNc1ccnc2cc(Cl)ccc12)Cc1ccccc1 [SJ000361198] |  | 20.78
Fc1cccc(CN(CCCCNc2ccnc3cc(Cl)ccc23)Cc2ccccc2)c1 [SJ000361199] |  | 28.34
O=[N+]([O-])c1ccccc1CN(CCCCNc1ccnc2cc(Cl)ccc12)Cc1ccccc1 [SJ000361200] |  | 17.21
O=[N+]([O-])c1cccc(CN(CCCCNc2ccnc3cc(Cl)ccc23)Cc2ccccc2)c1 [SJ000361201] |  | 24.37
O=[N+]([O-])c1ccc(CN(CCCCNc2ccnc3cc(Cl)ccc23)Cc2ccccc2)cc1 [SJ000361202] |  | 15.25
O=C(O)c1ccccc1CN(CCCCNc1ccnc2cc(Cl)ccc12)Cc1ccccc1 [SJ000361203] |  | 4.099
Clc1ccc2c(NCCCCN(Cc3ccccc3)Cc3cccc4ccccc34)ccnc2c1 [SJ000361204] |  | 26.49
Clc1ccc2c(NCCCCN(Cc3ccccc3)Cc3ccc4ccccc4c3)ccnc2c1 [SJ000361205] |  | 24.64
Cc1cccc(CN(CCCCNc2ccnc3cc(Cl)ccc23)Cc2ccccc2)c1 [SJ000361206] |  | 29.54
Clc1ccc(CN(CCCCNc2ccnc3cc(Cl)ccc23)Cc2ccccc2)c(Cl)c1 [SJ000361207] |  | 35.43
CCC(C)CN(CCCCNc1ccnc2cc(Cl)ccc12)Cc1ccccc1 (stereo not shown) [SJ000361208] |  | 35.37
Cc1ccc(C)c(CN(CCCCNc2ccnc3cc(Cl)ccc23)Cc2ccccc2)c1 [SJ000361209] |  | 32.65
COc1cccc(CN(CCCCNc2ccnc3cc(Cl)ccc23)Cc2ccccc2)c1 [SJ000361210] |  | 11.72
Clc1ccc2c(NCCCCN(CCc3ccccc3)Cc3ccccc3)ccnc2c1 [SJ000361211] |  | 23.38
CCCCCCN(CCCCNc1ccnc2cc(Cl)ccc12)Cc1ccccc1 [SJ000361212] |  | 23.58
CCCN(CCC)CCCNc1ccnc2cc(C(F)(F)F)ccc12 [SJ000361250] | 15.68 | 
CCCN(CCCNc1ccnc2cc(C(F)(F)F)ccc12)Cc1ccncc1 [SJ000361251] | 17.49 | 
CCCN(CCCNc1ccnc2cc(C(F)(F)F)ccc12)Cc1ccccn1 [SJ000361252] | 15.16 | 
CCCN(CCCNc1ccnc2cc(C(F)(F)F)ccc12)Cc1cccs1 [SJ000361253] | 19.53 | 
CCCN(CCCNc1ccnc2cc(C(F)(F)F)ccc12)Cc1ccsc1 [SJ000361254] | 28.88 | 
CCCN(CCCNc1ccnc2cc(C(F)(F)F)ccc12)Cc1ccc[nH]1 [SJ000361255] | 30.66 | 

SMILES | TR-FRET signal [1] | TR-FRET signal [2]
CCCN(CCCNc1ccnc2cc(C(F)(F)F)ccc12)Cc1ccccc1 [SJ000361256] | 28.82 | 
CCCN(CCCNc1ccnc2cc(C(F)(F)F)ccc12)Cc1ccccc1O [SJ000361257] | 26.5 | 
CCCN(CCCNc1ccnc2cc(C(F)(F)F)ccc12)Cc1ccc(C)s1 [SJ000361258] | 19.08 | 
CCCN(CCCNc1ccnc2cc(C(F)(F)F)ccc12)Cc1ccccc1C(F)(F)F [SJ000361259] | 4.988 | 
CCCN(CCCNc1ccnc2cc(C(F)(F)F)ccc12)Cc1cccc(OC)c1O [SJ000361260] | 15.49 | 
CCCN(CCCNc1ccnc2cc(C(F)(F)F)ccc12)Cc1ccc(C)o1 [SJ000361261] | 23.91 | 
CCCN(CCCNc1ccnc2cc(C(F)(F)F)ccc12)Cc1c(F)cccc1OC [SJ000361262] | 29.23 | 
CCCN(CCCNc1ccnc2cc(C(F)(F)F)ccc12)Cc1cc(OC)ccc1O [SJ000361263] | 25.26 | 
CCCN(CCCNc1ccnc2cc(C(F)(F)F)ccc12)Cc1c(C)cc(C)cc1C [SJ000361264] | 19.93 | 
CCCN(CCCNc1ccnc2cc(C(F)(F)F)ccc12)Cc1ccco1 [SJ000361265] | 24.11 | 
CCCN(CCCNc1ccnc2cc(C(F)(F)F)ccc12)CC1CC1 [SJ000361266] | 48.15 | 
CCCN(CCCNc1ccnc2cc(C(F)(F)F)ccc12)Cc1ccoc1 [SJ000361267] | 28.55 | 
CCCN(CCCNc1ccnc2cc(C(F)(F)F)ccc12)CC1CCCCC1 [SJ000361268] | 33.31 | 
CCCN(CCCNc1ccnc2cc(C(F)(F)F)ccc12)CC(CC)CC [SJ000361269] | 30.66 | 
CCCN(CCCNc1ccnc2cc(C(F)(F)F)ccc12)Cc1ccc2c(c1)OCO2 [SJ000361270] | 5.623 | 
CCCCCN(CCC)CCCNc1ccnc2cc(C(F)(F)F)ccc12 [SJ000361271] | 30.93 | 
CCCN(CCCNc1ccnc2cc(C(F)(F)F)ccc12)Cc1ccc(F)c(F)c1 [SJ000361272] | 13.84 | 
CCCN(CCCNc1ccnc2cc(C(F)(F)F)ccc12)Cc1ccc(OC)cc1 [SJ000361273] | 22.9 | 
CCCN(CCCNc1ccnc2cc(C(F)(F)F)ccc12)Cc1ccccc1F [SJ000361274] | 19.22 | 
CCCCCN(CCCCC)CC(=O)Nc1c2c(nc3ccccc13)CCC2 [SJ000487033] |  | −68.07
COC(=O)CN1CCN(c2cc(C)nc3ccccc23)C(C)C1=O (stereo not shown) [SJ000516812] |  | 3.503
Clc1ccc2c(N3CCN(CCCN4CCN(c5ccnc6cc(Cl)ccc56)CC4)CC3)ccnc2c1 [SJ000518980] |  | −2.989
Cc1[nH]cnc1CN(CCCCNc1ccnc2cc(Cl)ccc12)Cc1ccccc1 [SJ000520428] |  | 15.11
COC(=O)CCCCCN(CCCNc1ccnc2cc(Cl)ccc12)Cc1ccccc1 [SJ000520429] | 17.14 | 
Clc1ccc2c(NCCCN(Cc3ccccc3)Cc3ccc4[nH]ccc4c3)ccnc2c1 [SJ000520430] | 66.43 | 
